“And” between values parts separate entries of the source, which are not always exact repeats. Equal values may be shown once. Toxic doses and inconclusive results are not listed. No stated cut-off is given here; in the data, active means T/C of 150% or more; inactive means T/C below 125%.
System: L1210 leukemia ip in BDF1 mice, survival T/C
Test: NCI In Vivo Anticancer Drug Screen. Data for tumor model L1210 Leukemia (intraperitoneal) in B6D2F1 (BDF1) mice
Details: endpoint: mean survival time, higher = longer survival
Method in brief: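 Tumor was transplanted into mice, which were then dosed with test compound or vehicle alone. Survival was recorded for each group, and the treated figure was expressed relative to the control figure.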

[1] = dose: 100.0 mg/kg/injection, schedule: Q04DX002 (ip), vehicle: saline with Tween-80
[2] = dose: 100.0 mg/kg/injection, schedule: Q01DX001 (ip), vehicle: saline
[3] = dose: 200.0 mg/kg/injection, schedule: Q01DX001 (ip), vehicle: saline
[4] = dose: 75.0 mg/kg/injection, schedule: Q01DX001 (ip), vehicle: other
[5] = dose: 150.0 mg/kg/injection, schedule: Q01DX001 (ip), vehicle: other
[6] = dose: 100.0 mg/kg/injection, schedule: Q01DX009 (ip), vehicle: Klucel (hydroxypropylcellulose) (HPC)
[7] = dose: 200.0 mg/kg/injection, schedule: Q01DX009 (ip), vehicle: Klucel (hydroxypropylcellulose) (HPC)
[8] = dose: 100.0 mg/kg/injection, schedule: Q04DX003 (ip), vehicle: Klucel (hydroxypropylcellulose) (HPC)
[9] = dose: 200.0 mg/kg/injection, schedule: Q04DX003 (ip), vehicle: Klucel (hydroxypropylcellulose) (HPC)
[10] = dose: 400.0 mg/kg/injection, schedule: Q04DX003 (ip), vehicle: Klucel (hydroxypropylcellulose) (HPC)
[11] = dose: 100.0 mg/kg/injection, schedule: Q01DX009 (ip), vehicle: saline with Tween-80
[12] = dose: 100.0 mg/kg/injection, schedule: Q01DX001 (ip), vehicle: Klucel (hydroxypropylcellulose) (HPC)
[13] = dose: 200.0 mg/kg/injection, schedule: Q01DX001 (ip), vehicle: Klucel (hydroxypropylcellulose) (HPC)
[14] = dose: 100.0 mg/kg/injection, schedule: Q04DX003 (ip), vehicle: saline
[15] = dose: 200.0 mg/kg/injection, schedule: Q04DX003 (ip), vehicle: saline
[16] = dose: 400.0 mg/kg/injection, schedule: Q04DX003 (ip), vehicle: saline

Measured: T/C

COc1ccc(NC(=O)Nc2c(C)cc(C)cc2C)cc1
inactive: dose: 100.0 mg/kg/injection, schedule: Q01DX009 (ip), vehicle: gum acacia 94 % of control | dose: 100.0 mg/kg/injection, schedule: Q04DX003 (ip), vehicle: gum acacia 93 % of control | dose: 200.0 mg/kg/injection, schedule: Q01DX009 (ip), vehicle: gum acacia 96 % of control | dose: 200.0 mg/kg/injection, schedule: Q04DX003 (ip), vehicle: gum acacia 95 % of control | dose: 400.0 mg/kg/injection, schedule: Q01DX009 (ip), vehicle: gum acacia 98 % of control | dose: 400.0 mg/kg/injection, schedule: Q04DX003 (ip), vehicle: gum acacia 87 % of control

CSc1ncnc2c1ncn2N(CC1CO1)C(C)=O (configuration not stated)
inactive: [1] 91 % of control | dose: 200.0 mg/kg/injection, schedule: Q04DX002 (ip), vehicle: saline with Tween-80 91 % of control | dose: 400.0 mg/kg/injection, schedule: Q04DX002 (ip), vehicle: saline with Tween-80 95 % of control

O=C(N/N=C/c1ccccc1O)C(O)(c1ccccc1)c1ccccc1
inactive: dose: 100.0 mg/kg/injection, schedule: Q01DX001 (ip), vehicle: carboxymethylcellulose (CMC) 101 % of control | dose: 200.0 mg/kg/injection, schedule: Q01DX001 (ip), vehicle: carboxymethylcellulose (CMC) 97 % of control | dose: 400.0 mg/kg/injection, schedule: Q01DX001 (ip), vehicle: carboxymethylcellulose (CMC) 97 % of control

CCOC(=O)C(N)CS (configuration not stated)
inactive: [2] 106 % of control | [3] 97 % of control | dose: 400.0 mg/kg/injection, schedule: Q01DX001 (ip), vehicle: saline 101 % of control

Cc1ccccc1CC1c2[nH]c3ccccc3c2CCN1C (configuration not stated)
inactive: [4] 92 % of control | [5] 86 % of control

O=C1c2cccc3c([N+](=O)[O-])ccc(c23)C(=O)N1CC1CCCO1 (configuration not stated)
inactive: [6] 108 % of control | [7] 110 % of control

OC1C2CC3C1C3C2c1ccccc1 (configuration not stated)
inactive: [6] 102 % of control | [7] 91 % of control

COC(=O)N1C(c2ccccc2)CS1(=O)=O (configuration not stated)
inactive: dose: 25.0 mg/kg/injection, schedule: Q04DX002 (ip), vehicle: Klucel (hydroxypropylcellulose) (HPC) 106 % of control | dose: 50.0 mg/kg/injection, schedule: Q04DX002 (ip), vehicle: Klucel (hydroxypropylcellulose) (HPC) 113 % of control | dose: 100.0 mg/kg/injection, schedule: Q04DX002 (ip), vehicle: Klucel (hydroxypropylcellulose) (HPC) 97 % of control and 109 % of control

N/C(=N\Nc1ccccc1)N[N+](=O)[O-]
inactive: dose: 175.0 mg/kg/injection, schedule: Q01DX001 (ip), vehicle: acetone 100 % of control | dose: 265.0 mg/kg/injection, schedule: Q01DX001 (ip), vehicle: acetone 96 % of control | dose: 400.0 mg/kg/injection, schedule: Q01DX001 (ip), vehicle: acetone 94 % of control | dose: 600.0 mg/kg/injection, schedule: Q01DX001 (ip), vehicle: acetone 104 % of control

Nc1nc(=O)n(CCCSc2ccc([N+](=O)[O-])cc2)cc1-c1ccc(Cl)c(Cl)c1
inactive: [8] 90 % of control | [9] 90 % of control | [10] 88 % of control

CCCCC(CC)CNCC(CC)CCCC (configuration not stated)
inactive: dose: 25.0 mg/kg/injection, schedule: Q04DX003 (ip), vehicle: carboxymethylcellulose (CMC) 100 % of control | dose: 50.0 mg/kg/injection, schedule: Q04DX003 (ip), vehicle: carboxymethylcellulose (CMC) 102 % of control | dose: 100.0 mg/kg/injection, schedule: Q04DX003 (ip), vehicle: carboxymethylcellulose (CMC) 97 % of control | dose: 100.0 mg/kg/injection, schedule: Q04DX013 (ip), vehicle: carboxymethylcellulose (CMC) 96 % of control

COc1ccccc1OC(=O)Nc1cc([N+](=O)[O-])ccc1C
inactive: [11] 89 % of control | dose: 200.0 mg/kg/injection, schedule: Q01DX009 (ip), vehicle: saline with Tween-80 96 % of control | dose: 400.0 mg/kg/injection, schedule: Q01DX009 (ip), vehicle: saline with Tween-80 121 % of control

CN(C)C(=O)Nc1ccc2c(c1)OCO2
inactive: dose: 75.0 mg/kg/injection, schedule: Q01DX009 (ip), vehicle: Klucel (hydroxypropylcellulose) (HPC) 107 % of control | [12] 111 % of control | dose: 150.0 mg/kg/injection, schedule: Q01DX009 (ip), vehicle: Klucel (hydroxypropylcellulose) (HPC) 110 % of control | [13] 104 % of control | dose: 300.0 mg/kg/injection, schedule: Q01DX009 (ip), vehicle: Klucel (hydroxypropylcellulose) (HPC) 102 % of control

NC(=O)Nc1cccc(C(=O)O)c1C(=O)O
inactive: dose: 100.0 mg/kg/injection, schedule: Q01DX001 (ip), vehicle: other 101 % of control | dose: 100.0 mg/kg/injection, schedule: Q04DX003 (ip), vehicle: other 102 % of control | dose: 200.0 mg/kg/injection, schedule: Q01DX001 (ip), vehicle: other 101 % of control | dose: 200.0 mg/kg/injection, schedule: Q04DX003 (ip), vehicle: other 98 % of control | dose: 400.0 mg/kg/injection, schedule: Q01DX001 (ip), vehicle: other 107 % of control | dose: 400.0 mg/kg/injection, schedule: Q04DX003 (ip), vehicle: other 98 % of control

CCc1c(N)nc(=O)[nH]c1C(=O)O
inactive: [12] 115 % of control | [8] 96 % of control | [13] 118 % of control | [9] 100 % of control | dose: 400.0 mg/kg/injection, schedule: Q01DX001 (ip), vehicle: Klucel (hydroxypropylcellulose) (HPC) 117 % of control | [10] 104 % of control

O=C(O)C(=O)c1c(O)n(-c2ccccc2)c2ccccc12
inactive: dose: 25.0 mg/kg/injection, schedule: Q01DX001 (ip), vehicle: Klucel (hydroxypropylcellulose) (HPC) 95 % of control | dose: 50.0 mg/kg/injection, schedule: Q01DX001 (ip), vehicle: Klucel (hydroxypropylcellulose) (HPC) 95 % of control | [12] 93 % of control and 92 % of control

CCOC(=O)c1ccc(C(=O)O)[n+]([O-])c1
inactive: [6] 100 % of control | [8] 92 % of control | [7] 95 % of control | [9] 100 % of control | [10] 96 % of control

Cc1ccc(S(=O)(=O)Oc2ccc(I)cc2)cc1
inactive: [6] 107 % of control | [8] 100 % of control | [7] 98 % of control | [9] 105 % of control | dose: 400.0 mg/kg/injection, schedule: Q01DX009 (ip), vehicle: Klucel (hydroxypropylcellulose) (HPC) 103 % of control | [10] 97 % of control

Cc1ccc(S(=O)(=O)NC(=O)NC2CCCCC2)cc1
inactive: [14] 88 % of control | [15] 93 % of control | [16] 104 % of control

OCC(O)C1CCCCN1 (configuration not stated)
inactive: dose: 100.0 mg/kg/injection, schedule: Q01DX009 (ip), vehicle: saline 91 % of control | [14] 97 % of control | dose: 200.0 mg/kg/injection, schedule: Q01DX009 (ip), vehicle: saline 100 % of control | [15] 97 % of control | [16] 97 % of control

CC1=C2[C@H]3OC(=O)[C@@H](C)[C@@H]3CC[C@@]2(C)C=CC1=O
inactive: [2] 101 % of control | [8] 97 % of control | [3] 101 % of control | [9] 103 % of control

CC(=O)Nc1ccc(S(=O)(=O)Cl)cc1
inactive: [4] 94 % of control | [14] 108 % of control | [5] 88 % of control | [15] 92 % of control | [16] 90 % of control

Cc1ccc(S(=O)(=O)Cl)cc1C(=O)O
inactive: dose: 12.5 mg/kg/injection, schedule: Q01DX001 (ip), vehicle: saline with Tween-80 92 % of control and 99 % of control | dose: 25.0 mg/kg/injection, schedule: Q01DX001 (ip), vehicle: saline with Tween-80 99 % of control and 87 % of control | dose: 25.0 mg/kg/injection, schedule: Q01DX009 (ip), vehicle: saline with Tween-80 102 % of control | dose: 25.0 mg/kg/injection, schedule: Q04DX003 (ip), vehicle: saline with Tween-80 103 % of control | dose: 50.0 mg/kg/injection, schedule: Q01DX009 (ip), vehicle: saline with Tween-80 93 % of control | dose: 50.0 mg/kg/injection, schedule: Q04DX002 (ip), vehicle: saline with Tween-80 96 % of control and 108 % of control | dose: 50.0 mg/kg/injection, schedule: Q04DX003 (ip), vehicle: saline with Tween-80 97 % of control | dose: 100.0 mg/kg/injection, schedule: Q01DX001 (ip), vehicle: saline with Tween-80 94 % of control and 95 % of control | [11] 96 % of control | [1] 104 % of control and 86 % of control and 90 % of control | dose: 100.0 mg/kg/injection, schedule: Q04DX003 (ip), vehicle: saline with Tween-80 98 % of control

From PubChem BioAssay AID248 (DTP/NCI, 2004)
